This note sets out measurements from paper PMC5891061, “Electrophysiological mechanisms of vandetanib-induced cardiotoxicity: Comparison of action potentials in rabbit Purkinje fibers and pluripotent stem cell-derived cardiomyocytes” (PLoS ONE, 2018).

Data set [1] has as its target F656A hERG (Homo sapiens, UniProt Q12809, F656A). In words: in vitro. Conditions: HEK-293 cells transiently expressing F656A mutant hERG.
The target of data set [2] is T1, KCNQ1/KCNE1 (IKs) (Homo sapiens, UniProt P51787).
T1 construct: expressed in transfected cells; host or cells: HEK293
In words: Whole-cell patch clamp, IKs in KCNQ1/KCNE1-cotransfected HEK293 cells. Conditions: for IKs current: HEK293. Type of data set: cell-based. An excerpt:
(§1) For various aspects of cardiac ion channel study, human embryonic kidney (HEK293; ATCC, Manassas, VA, USA) cells were transiently transfected using lipofectAmin2000 (Gibco BRL, New York, NY, USA) according to the manufacturer’s instructions. The hERG (human ether-ago-go-related gene corresponding to IKr), KCNQ1/KCNE1 (the gene corresponding to IKs), KCNJ2 (the gene corresponding to IK1) or SCN5A (the gene corresponding to INa) cDNA was co-transfected with green fluorescence protein, the surface marker protein, to allow assessment of the transfection efficiency. For the calcium current, enzymatically isolated single rat ventricular myocytes were used. Briefly, the hearts were rapidly excised from anaesthetized Sprague–Dawley rats (250–350 g) and perfused via the aorta on a Langendorff apparatus with an oxygenated normal Tyrode (NT) solution for 5 min. To clear the blood, then perfused with Ca^2+-free normal Tyrode solution for 3 min. Next, the heart was perfused with enzyme solution containing 0.6 mg/mL collagenase (Worthington Biomedical Corp., Lakewood, NJ, USA) for 30–40 min. Finally, this enzyme-containing solution was washed out for 5 min. with a high-K^+ and low-Cl^-) Kraft-Bruhe solution. Following the isolation procedure, the left ventricle was dissected out and agitated mechanically with a fire-polished Pasteur pipette in Kraft-Bruhe solution to obtain single myocytes. The isolated myocytes were stored at 4°C until use.
The external solution for recording the IhERG, IKs and INa channel currents was NT solution. The internal solution for IhERG contained the following (in mM): 130 KCl, 5 EGTA, 10 HEPES, 1 MgCl2, 5 Mg-ATP (pH 7.25 with KOH), and for IKs in the KCNQ1/KCNE1-cotransfected HEK293 cells, 150 KCl, 5 EGTA, 10 HEPES, 2 MgCl2, 1 CaCl2 and 5 Na2-ATP (pH adjusted 7.25 with KOH). […] The calcium current was measured in naïve rat ventricular myocytes, cells were superfused with an external solution that consisted of (in mM): 137 choline-Cl, 5 CsCl, 0.5 MgCl2, 2 4-AP, 10 HEPES, 10 glucose and 1.8 CaCl2 (pH 7.4 with NaOH), whereas the intracellular solution used to fill the pipette had the following ionic solution (in mM): 20 CsCl, 100 Cs-aspartate, 10 EGTA, 10 HEPES, 20 TEA-Cl, 5 Mg-ATP (pH 7.25 with KOH). […]
(§2) pCLAMP (Axon Instruments, Foster City, CA, USA), Origin 8 (OriginLab Corp, Northampton, MA, USA), and Excel (Microsoft, Redmond, WA, USA) were used for data acquisition and analysis. The concentration–response relationships for drug-induced blockage were calculated using SigmaPlot (Systat Software, San Jose, CA, USA). […] Statistical significance was determined using the Student’s t-test and one-way ANOVA with post hoc testing using Dunnett’s method; p < 0.05 was considered to indicate statistical significance. […]
On the technique in general: The patch-clamp technique gives a direct electrical read-out from membranes.

The target of data set [3] is hERG (IKr) (Homo sapiens, UniProt Q12809). Nature of the data set: Whole-cell patch clamp, IhERG tail current in transfected HEK293 cells.
Description: as §1, with “Next, the heart was perfused with enzyme solution containing 0.6 mg/mL collagenase (Worthington Biomedical Corp., Lakewood, NJ, USA) for 30–40 min. Finally, this enzyme-containing solution was washed out for 5 min. with a high-K^+ and low-Cl^-) Kraft-Bruhe solution. Following the isolation procedure, the left ventricle was dissected out and agitated mechanically with a fire-polished Pasteur pipette in Kraft-Bruhe solution to obtain single myocytes. The isolated myocytes were stored at 4°C until use.” left out
(§3) The external solution for recording the IhERG, IKs and INa channel currents was NT solution. […] The calcium current was measured in naïve rat ventricular myocytes, cells were superfused with an external solution that consisted of (in mM): 137 choline-Cl, 5 CsCl, 0.5 MgCl2, 2 4-AP, 10 HEPES, 10 glucose and 1.8 CaCl2 (pH 7.4 with NaOH), whereas the intracellular solution used to fill the pipette had the following ionic solution (in mM): 20 CsCl, 100 Cs-aspartate, 10 EGTA, 10 HEPES, 20 TEA-Cl, 5 Mg-ATP (pH 7.25 with KOH). […]
as §2

For data set [4], the target named is T2, KCNJ2 (IK1) (Homo sapiens, UniProt P63252).
T2 sequence (P63252 1-427): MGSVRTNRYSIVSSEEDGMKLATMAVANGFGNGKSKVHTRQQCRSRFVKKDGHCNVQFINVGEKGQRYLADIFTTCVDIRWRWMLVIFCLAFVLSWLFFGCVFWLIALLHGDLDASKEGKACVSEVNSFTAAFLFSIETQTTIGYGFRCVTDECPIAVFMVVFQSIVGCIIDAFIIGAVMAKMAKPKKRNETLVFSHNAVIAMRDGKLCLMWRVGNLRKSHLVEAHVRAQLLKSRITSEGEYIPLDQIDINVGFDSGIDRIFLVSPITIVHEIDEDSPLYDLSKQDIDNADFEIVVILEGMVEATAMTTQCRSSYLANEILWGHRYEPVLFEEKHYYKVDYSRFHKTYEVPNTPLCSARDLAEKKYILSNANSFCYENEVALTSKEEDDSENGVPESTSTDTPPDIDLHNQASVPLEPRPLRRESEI
In words: cell-based.
Description: For various aspects of cardiac ion channel study, human embryonic kidney (HEK293; ATCC, Manassas, VA, USA) cells were transiently transfected using lipofectAmin2000 (Gibco BRL, New York, NY, USA) according to the manufacturer’s instructions. The hERG (human ether-ago-go-related gene corresponding to IKr), KCNQ1/KCNE1 (the gene corresponding to IKs), KCNJ2 (the gene corresponding to IK1) or SCN5A (the gene corresponding to INa) cDNA was co-transfected with green fluorescence protein, the surface marker protein, to allow assessment of the transfection efficiency. For the calcium current, enzymatically isolated single rat ventricular myocytes were used. Briefly, the hearts were rapidly excised from anaesthetized Sprague–Dawley rats (250–350 g) and perfused via the aorta on a Langendorff apparatus with an oxygenated normal Tyrode (NT) solution for 5 min. […]
as §3

For data set [5], the target named is WT hERG (inward tail current) (Homo sapiens, UniProt Q12809). Conditions: human, HEK-293 cells transiently expressing wild-type hERG. From the text:
(§4) The hERG mutations were constructed by site-directed mutagenesis of WT hERG cDNA in pcDNA3.1 vector using the QuickChange Site-Directed Mutagenesis Kit (Stratagene), and the integrity of the construct was verified by DNA sequencing. The WT hERG (generously donated by Professor Ho, Seoul National University, Korea) and mutant channels were transiently expressed in an HEK-293 cell line using Lipofectamine 2000 (Gibco), according to the manufacturer’s recommendations.
For orientation: Block of hERG is tested as a sign of cardiac risk.

The target of data set [6] is WT (inward) hERG (Homo sapiens, UniProt Q12809). Conditions: 3 μM, -120 mV, high K+.
Description: as §4

Data set [7] deals with S624A hERG (Homo sapiens, UniProt Q12809, S624A). Conditions: 3 μM.
Description: as §4

For `COc1cc2c(Nc3ccc(Br)cc3F)ncnc2cc1OCC1CCN(C)CC1` [Vandetanib], the inhibition at 3 μM was 27.4 ± 4.8% in data set [1] and 69 ± 1.8% in data set [5]. The IKs current in data set [2] (10 μM) was 840.7 ± 180.3; in data set [2] (30 μM), 406.5 ± 113.7; in data set [2] (100 μM), 108.2 ± 8.3. Further, the concentration for half-maximal inhibition (IC50) in data set [2] (HEK293 cells) is 28 ± 1.81 µM; in data set [4] it was 94.5 ± 4.57 µM. Further, the “Reduction of IhERG current amplitude” value is given as 17.04% in data set [3] (0.3 μM), 45.32% in data set [3] (1 μM) and 76.05% in data set [3] (3 μM). In data set [6], the “WT (inward) hERG current” value is -1818.9 ± 217.3. The “S624A hERG current” value in data set [7] came to 78.1 ± 31.0.

As usually defined, the inhibition is the percentage by which the read-out fell short of the control. A word on the IC50: it is the concentration at which inhibition is half-maximal.
